Reference: patent US20070116833A1, “High-Potency Sweetener Composition with Calcium and Compositions Sweetened Therewith” (THE COCA-COLA COMPANY, priority 2005, published 2007)
Blank lines part the entries; values can stand above or below the compound they belong to.

Assays:
[1] = test system: panel of experts in the sensory evaluation of foods and beverages; assay: Sensory evaluation of sweetness linger by expert panel; assay type: in vivo; set-up: key: 0: no sweetness linger; 1: very slight sweetness linger; 2: slight sweetness linger; 3: moderate sweetness linger; 4: moderately high sweetness linger; 5: high sweetness linger; conditions: for sweetness linger: scale 0-5; for Sweetness Linger rating (defined for controls): ratings defined for the protocol, REBA control sample 500 ppm
Procedure: Sensory evaluation of the samples prepared in Example Set G was carried out under the following protocol, similar to that described hereinabove. In this test protocol, none of the samples were swallowed. All samples were expectorated and the mouth was rinsed with water after the tasting. Immediately upon sensing maximal sweetness, the sample was expectorated, the mouth was rinsed with water and the rate of sweetness decay (“Sweetness Linger”) was measured, where attention was focused on the sweetness 3-4 min after the water rinse. After sample tasting was complete, a salty oyster cracker was chewed followed by a water rinse, and at least 5 minutes followed before tasting the next sample. The sweetness linger was rated by a panel of experts in the sensory evaluation of foods and beverages using the following scale: 0=no sweetness linger, 1 =very slight sweetness linger, 2 slight sweetness linger, 3=moderate sweetness linger, 4 =moderately high sweetness linger, 5 high sweetness linger.
The “Sweetness Linger” rating for sucrose observed by this protocol is defined as 0. The Sweetness Linger of a 500 ppm of REBA control sample is defined as 5. Experimental samples were tasted by the same protocol, always allowing sufficient time between samples to ensure re-equilibration of the sensory system. Re-tasting of control samples during the course of the experiment was allowed and encouraged.
The comparison taste test was performed between two controls and addition of sweet taste improving additive on the onset and/or sweetness linger.
Sweet taste improving compositions were combined with a REBA solution to determine their effect on sweetness linger. Screening of the initial sample, or further dilutions, allowed identification of concentrations which were just above-threshold, herein defined as “near-threshold concentrations.” The near-threshold additive concentrations, a 6- to 100-fold higher additive concentration (depending on the off-taste intensity), and a mid-level additive concentration (halfway between the near-threshold and higher additive concentration) were evaluated to determine the effect on sweetness linger of a REBA solution. […]
Sensory evaluation using the protocol described in Example Set G then was used to evaluate the sweetness linger of the REBA solutions.

[2] = Rate of dissolution of rebaudioside A polymorphs in H2O; assay type: physicochemical
[3] = assay type: physicochemical
Procedure: A solution of rebaudioside A (>97% pure by HPLC) was prepared in double distilled water (12.5 gm in 50 mL, 25% concentration) by stirring the mixture at 40° C. for 5 minutes. An amorphous form of rebaudioside A was formed by immediately using the clear solution for spray drying with the Lab-Plant spray drier SD-04 instrument (Lab-Plant Ltd., West Yorkshire, U.K.). The solution was fed through the feed pump into the nozzle atomizer which atomized it into a spray of droplets with the help of a constant flow of nitrogen/air. […] This dry powder (11-12 g, H2O 6.74%) was discharged continuously from the drying chamber and was collected in a bottle.

Compound: rebaudioside A
- sweetness linger ([1]; Example Set G: 400 ppm REBA in citric acid/potassium citrate composition equivalent to that in a diet lemon-lime beverage, sweetness 3-4 min after water rinse): 5
- sweetness linger ([1]; Example Set H: 500 ppm REBA (H41: 360 ppm) in carbon-treated water, phosphoric acid (75%) to pH 2.4-2.5): 5
- Sweetness Linger rating (defined for controls) [1]: 5

- Rate of dissolution in H2O at 25° C. [2]: Very low (<0.2%/ %/60 minutes
Compound: rebaudioside A [Form 1]

Compound: OC[C@H]1O[C@@](CO)(O[C@H]2O[C@H](CO)[C@@H](O)[C@H](O)[C@H]2O)[C@@H](O)[C@@H]1O [sugar, sucrose, reference compound]
- Sweetness Linger rating (defined for controls) [1]: 0

- solubility in water at room temperature [3]: > 35.0%
Compound: rebaudioside A [F]
